Entries after “also recorded” stand apart in the source; their conditions may differ.
Legend:
Type in all cases: in vivo, mouse
aged mice [1] = assay: Chemokine and cytokine multiplex assay of plasma and hippocampus of treated mice; conditions: aged (20-22 mo) mice, 2.5 mg/kg/d by gavage, 6 weeks
Protocol: PGE2, Butaprost, PF04418948 and Iloprost were purchased from Millipore-Sigma (Burlington, Mass., USA). ONO-AE248 and ONO-AE1-329 were gifts from Ono Pharmaceuticals (Osaka, Japan). Compound 52 (Charnwood Molecular Ltd, Loughborough, UK) and PF04418948 (Millipore-Sigma, Burlington, Mass., USA) were resuspended in 40% PEG (Sigma-Aldrich) and 60% of a 30% Kolliphor HS15 solution (Sigma-Aldrich), and administered orally at 10 mg/kg/d and 2.5 mg/kg/d, respectively. U-^13C-Glucose, U-^13C-Lactate, U-^13C-Glutamine, and U-^13C-Pyruvate were purchased from Cambridge Isotopes (Tewksbury, Mass., USA). HUSH-29 plasmids containing shRNAs to human GYS1 were purchased from Origene Technologies (Rockville, Md., USA). Human monocyte derived macrophages were incubated with 1640 Media with GlutaMAX+HEPES without sodium pyruvate (ThermoFisher, catolog No. 72400146). […]
Hippocampal lysates or mouse plasma were stored at −80° C. and cytokine analysis was carried out at the Human Immune Monitoring Core (Stanford University) or Eve Technologies (Calgary, Alberta, Canada) using Luminex mouse 39-plex kits and Human 71-plex kits. Plates were read using a Luminex LabMap200 instrument or a MSD Chemiluminescence instrument with a lower bound of 100 beads per sample per measured cytokine. […] Mean fluorescence intensity (MFI) was averaged over duplicate wells for each cytokine per sample on each plate. […]

aged mice [2] = assay: Spatial memory: Novel Object Location and Barnes Maze tasks; conditions: aged (20-22 mo) mice, 2.5 mg/kg/d, 6 weeks
Protocol: The Novel Object Location protocol was adopted from Wimmer et al. with minor modifications. Mice interacted with the chamber (a 16 in×16 in×15 in white box made from PVC) over the course of 2 days involving 1 habituation period, 3 training sessions, and 1 testing session. On the day of training (day 1) mice were placed in the middle of an empty chamber and given 5 minutes to explore the chamber. Mice were then placed in an independent holding cage for an inter-training interval (ITI) of 3 minutes. The objects used were a plastic bottle and seasoning shaker of similar size (3 in H×1 in W×1 in L). After the habituation session, the mice then underwent three 10-minute training sessions each with a 3 min ITI in between sessions. […] Animals were recorded a JVC Everio HD camcorder GZE200 and analyzed with Kinovea video tracking software. Exploration of the objects was defined as the amount of time mice were oriented toward an object with its nose within 1 cm of it, and was scored by an experimenter blind to experimental group. […]
After testing each mouse, the maze was cleaned with 70% ethanol and rotated clockwise after every mouse to avoid intra-maze odor or visual cues. All sessions were recorded using a JVC Everio HD camcorder GZ-E200 and analyzed with Kinovea video tracking software. […]

aged mice [3] = assay: Nanostring transcriptomics of peritoneal macrophages from treated mice
Protocol: For gene expression analysis on the NanoString nCounter system, 100 ng of RNA was hybridized to a multiplexed nucleotide probe pool for 16 hours at 65° C. Enriched targets were purified and quantified using the nCounter MAX Analysis System. NanoString data analysis was performed by Canopy Biosciences (St. Louis, Mo.). Raw counts were normalized using the geometric mean of both positive control probes (technical variability) and housekeeping gene probes (assay input variability). Normalized data was uploaded to the interactive analysis platform Rosalind (https://rosalind.onramp.bio/), with a HyperScale architecture developed by OnRamp BioInformatics, Inc. (San Diego, Calif.) Read Distribution percentages, violin plots, identity heatmaps, and sample MDS plots were generated as part of the QC step. The limma R library1 was used to calculate fold changes and p-values and perform optional covariate correction. Clustering of genes for the final heatmap of differentially expressed genes was done using the PAM (Partitioning Around Medoids) method using the fpc R library2 that takes into consideration the direction and type of all signals on a pathway, the position, role and type of every gene, etc. Functional enrichment analysis of pathways, gene ontology, domain structure and other ontologies was performed using HOMER3. Several database sources were referenced for enrichment analysis, including Interpro4, NCBI5, MSigDB6,7, REACTOME8, WikiPathways9. Enrichment was calculated relative to a set of background genes relevant for the experiment.

[4] = aged mice, 2.5 mg/kg/d, 6 weeks

COc1ccc2cc(OCC3(C(=O)O)CN(C(=O)c4ccc(F)cc4)C3)ccc2c1 [PF-04418948]
pro-inflammatory factors in blood and hippocampus (aged mice [1]): reduced levels of pro-inflammatory factors not only in blood but also in hippocampus
hippocampal memory function (aged mice [2]): restored hippocampal memory function as well as LTP to youthful levels
expression of glycolytic and TCA genes in peritoneal macrophages (aged mice [3]; aged (20-22 mo) mice, 2.5 mg/kg/d for 6 weeks): restores expression levels of glycolytic and TCA genes in aged mice
age-related upregulation of pro-inflammatory gene transcripts and downregulation of glycolytic and TCA gene transcripts in macrophages (aged mice [3]; [4]): reciprocally reversed
top differentially regulated chemokine and cytokine transcripts in peritoneal macrophages (aged mice [3]; [4]): shifts expression towards young macrophage levels
transcriptome of peritoneal macrophages (clustering of 1449 genes, PCA) (aged mice [3]; young (3-4 mo) and aged (20-22 mo) mice, 2.5 mg/kg/d, 6 weeks, 2.5 mg/kg/day): cluster with young mice treated with vehicle or PF-04418948; also recorded: significant shift away from vehicle-treated aged mice toward young macrophages

Reference: patent US20220048987A1, “METHOD OF TREATMENT TO PREVENT OR REVERSE AGE-ASSOCIATED INFLAMMATION, COGNITIVE DECLINE, AND NEURODEGENERATION” (The Board of Trustees of the Leland Stanford Junior …, priority 2020, published 2022)
